Results from patent publication US20210387966A1, “2-AMINO-N-HETEROARYL-NICOTINAMIDES AS NAV1.8 INHIBITORS” (Merck Sharp & Dohme Corp., priority 2018, published 2021).

What follows are compounds tested against T1, human Nav1.8 channels (Homo sapiens, UniProt Q9Y5Y9) (assay: Nav1.8 Qube automated patch-clamp assay). Conditions: human Nav1.8 stably expressed in HEK 293 cells; whole-cell voltage clamp, room temperature; resting or inactivated state not specified; read-out: IC50 values (nM) for Examples in the Nav1.8 Qube Assay.
T1 construct: expressed in transfected cells
Format: cell-based
Summary of the method: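 Whole-cell patch clamp at room temperature on HEK293 cells stably expressing human Nav1.8. A 1 Hz train of ten 20 ms pulses to 10 mV from −90 mV holding, with −67 mV repolarization, was applied; first- and tenth-pulse peak currents gave resting and inactivated-state IC50s by Hill fitting.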

T1 sequence (Q9Y5Y9 whole entry): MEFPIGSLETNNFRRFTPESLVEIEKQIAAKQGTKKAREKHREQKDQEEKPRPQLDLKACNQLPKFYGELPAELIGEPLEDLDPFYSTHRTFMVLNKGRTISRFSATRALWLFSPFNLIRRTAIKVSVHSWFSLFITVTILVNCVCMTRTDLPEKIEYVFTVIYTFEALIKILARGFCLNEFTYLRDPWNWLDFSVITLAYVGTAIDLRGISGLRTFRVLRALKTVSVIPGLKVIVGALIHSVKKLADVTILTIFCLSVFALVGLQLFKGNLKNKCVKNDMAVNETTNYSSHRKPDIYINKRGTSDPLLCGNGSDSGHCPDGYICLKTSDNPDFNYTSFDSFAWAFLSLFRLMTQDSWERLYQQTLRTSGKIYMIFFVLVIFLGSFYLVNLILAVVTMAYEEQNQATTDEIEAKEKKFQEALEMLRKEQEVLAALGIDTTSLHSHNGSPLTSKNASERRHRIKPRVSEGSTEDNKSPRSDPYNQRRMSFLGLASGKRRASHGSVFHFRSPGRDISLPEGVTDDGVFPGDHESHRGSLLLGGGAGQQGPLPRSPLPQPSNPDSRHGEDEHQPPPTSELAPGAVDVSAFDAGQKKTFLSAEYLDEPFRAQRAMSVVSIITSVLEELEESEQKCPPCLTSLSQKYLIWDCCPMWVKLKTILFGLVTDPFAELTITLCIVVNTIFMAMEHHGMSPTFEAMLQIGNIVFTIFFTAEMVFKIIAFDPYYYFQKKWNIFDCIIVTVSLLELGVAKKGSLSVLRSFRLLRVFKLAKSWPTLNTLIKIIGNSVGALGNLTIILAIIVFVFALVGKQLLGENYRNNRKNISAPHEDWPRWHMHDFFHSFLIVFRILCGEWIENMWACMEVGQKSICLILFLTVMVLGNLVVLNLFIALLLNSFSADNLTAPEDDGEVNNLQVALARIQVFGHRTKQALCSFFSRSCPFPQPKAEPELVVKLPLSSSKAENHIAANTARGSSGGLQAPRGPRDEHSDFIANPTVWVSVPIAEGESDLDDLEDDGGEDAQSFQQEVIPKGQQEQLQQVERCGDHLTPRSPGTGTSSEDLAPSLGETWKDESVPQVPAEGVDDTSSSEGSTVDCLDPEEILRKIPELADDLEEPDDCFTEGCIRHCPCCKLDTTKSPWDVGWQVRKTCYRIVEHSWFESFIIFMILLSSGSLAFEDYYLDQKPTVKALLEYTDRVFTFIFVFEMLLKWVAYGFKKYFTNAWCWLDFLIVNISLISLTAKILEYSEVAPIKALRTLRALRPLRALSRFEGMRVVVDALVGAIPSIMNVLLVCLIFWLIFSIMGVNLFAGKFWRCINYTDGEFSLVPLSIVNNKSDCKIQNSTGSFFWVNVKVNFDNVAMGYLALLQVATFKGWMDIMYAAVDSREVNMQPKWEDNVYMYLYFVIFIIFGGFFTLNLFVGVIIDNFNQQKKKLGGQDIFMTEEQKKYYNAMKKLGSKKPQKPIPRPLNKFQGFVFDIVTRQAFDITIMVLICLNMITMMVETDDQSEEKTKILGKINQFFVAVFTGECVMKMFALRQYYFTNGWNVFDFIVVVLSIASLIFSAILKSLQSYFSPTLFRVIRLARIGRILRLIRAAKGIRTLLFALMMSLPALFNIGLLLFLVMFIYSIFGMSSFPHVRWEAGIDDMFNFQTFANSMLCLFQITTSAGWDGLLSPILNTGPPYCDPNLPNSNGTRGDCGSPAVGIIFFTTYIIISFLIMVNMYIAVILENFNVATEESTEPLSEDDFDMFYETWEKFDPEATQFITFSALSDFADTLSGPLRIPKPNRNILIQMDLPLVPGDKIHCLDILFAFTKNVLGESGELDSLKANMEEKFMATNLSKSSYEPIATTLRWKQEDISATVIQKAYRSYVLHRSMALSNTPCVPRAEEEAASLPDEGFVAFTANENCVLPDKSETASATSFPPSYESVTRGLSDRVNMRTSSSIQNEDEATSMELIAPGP

| IC50 [nM] | SMILES |
| --- | --- |
| 163 | COc1ccc(C(=O)Nc2cncc(S(N)(=O)=O)c2)c(N2CCCC(F)(F)CC2)n1 [Example 192, 2-(4,4-difluoroazepan-1-yl)-6-methoxy-N-(5-sulfamoyl-3-pyridyl)pyridine-3-carboxamide] |
| 24 | Cc1cc(Cl)nc(N2CCC(F)(F)CC2)c1C(=O)Nc1ccnc(S(N)(=O)=O)c1 [Example 170, 6-chloro-2-(4,4-difluoropiperidin-1-yl)-4-methyl-N-(2-sulfamoylpyridin-4-yl)nicotinamide] |
| 9.2 | NS(=O)(=O)c1cc(NC(=O)c2cc(OC(F)F)cnc2N2CCCC(F)(F)CC2)ccn1 [Example 171, 2-(4,4-difluoroazepan-1-yl)-5-(difluoromethoxy)-N-(2-sulfamoylpyridin-4-yl)nicotinamide] |
| 5.1 | COc1nc(N2CCCC(F)(F)CC2)c(C(=O)Nc2ccnc(S(N)(=O)=O)c2)cc1Cl [Example 41, 5-chloro-2-(4,4-difluoroazepan-1-yl)-6-methoxy-N-(2-sulfamoylpyridin-4-yl)pyridine-3-carboxamide] |
| 199 | Cc1ncc(C(=O)Nc2ccnc(S(N)(=O)=O)c2)c(N2CCCC(F)(F)CC2)n1 [Example 173, 4-(4,4-difluoroazepan-1-yl)-2-methyl-N-(2-sulfamoylpyridin-4-yl)pyrimidine-5-carboxamide] |
| 289 | CC(C)(C)NS(=O)(=O)c1cc(NC(=O)c2cc(Cl)cnc2N2CCCC(F)(F)CC2)ccn1 [Example 109, N-[2-(tert-butylsulfamoyl)-4-pyridyl]-5-chloro-2-(4,4-difluoroazepan-1-yl)pyridine-3-carboxamide] |
| 570 | O=C(Nc1cc[nH]c(=O)c1)c1cc(C(F)(F)F)cnc1N1CCCCCC1 [Example 212, 2-(azepan-1-yl)-N-(2-oxo-1,2-dihydropyridin-4-yl)-5-(trifluoromethyl)nicotinamide] |
| 32 | Cc1nc(N2CCOC(C(F)F)CC2)c(C(=O)Nc2ccnc(S(N)(=O)=O)c2)cc1Cl (single isomer, unassigned) [Example 116, 5-chloro-2-[(7R or 7S)-7-(difluoromethyl)-1,4-oxazepan-4-yl]-6-methyl-N-(2-sulfamoylpyridin-4-yl)pyridine-3-carboxamide] |
| 62 | NS(=O)(=O)c1cc(NC(=O)c2cc(C3CC3)c(OC(F)(F)F)nc2N2CCC(F)(F)CC2)ccn1 [Example 182, 5-cyclopropyl-2-(4,4-difluoropiperidin-1-yl)-N-(2-sulfamoylpyridin-4-yl)-6-(trifluoromethoxy)nicotinamide] |
| 10 | CC1CN(c2nc(C(F)(F)F)ccc2C(=O)Nc2ccnc(S(N)(=O)=O)c2)CCC1(F)F (single isomer, unassigned) [Example 163, (S or R)-2-(4,4-difluoro-3-methylpiperidin-1-yl)-N-(2-sulfamoylpyridin-d-yl)-6-(trifluoromethyl)nicotinamide] |
| 31 | NS(=O)(=O)c1cc(NC(=O)c2cc(C(F)(F)F)cnc2N2CCC(Cl)(Cl)CC2)ccn1 [Example 29, 2-(4,4-Dichloropiperidin-1-yl)-N-(2-sulfamoylpyridin-4-yl)-5-(trifluoromethyl)nicotinamide] |
| 1.4 | CC1CN(c2ncc(C(F)(F)F)cc2C(=O)Nc2ccnc(S(N)(=O)=O)c2)CCC1(Cl)Cl (single isomer, unassigned) [Example 49, (R or S)-2-(4,4-dichloro-3-methylpiperidin-1-yl)-N-(2-sulfamoylpyridin-4-yl)-5-(trifluoromethy)nicotinamide] |
| 4.1 | NS(=O)(=O)c1cc(NC(=O)c2ccc(C(F)F)nc2N2CCCC(F)(F)CC2)ccn1 [Example 174, 2-(4,4-difluoroazepan-1-yl)-6-(difluoromethyl)-N-(2-sulfamoylpyridin-4-yl)nicotinamide] |
| 5.4 | Cc1nc(N2CCCC(F)(F)CC2)c(C(=O)Nc2ccnc(S(N)(=O)=O)c2)cc1C#N [Example 25, 5-cyano-2-(4,4-difluoroazepan-1-yl)-6-methyl-N-(2-sulfamoylpyridin-4-yl)nicotinamide] |
| 91 | CS(=O)(=O)c1cc(NC(=O)c2cc(C(F)(F)F)cnc2N2CCCCCC2)ccn1 [Example 140, 2-(azepan-1-yl)-N-(2-methylsulfonyl-4-pyridyl)-5-(trifluoromethyl)-pyridine-3-carboxamide] |
| 1090 | O=C(Nc1ccnc(S(=O)(=O)O)c1)c1cc(C(F)(F)F)cnc1N1CCC(F)(F)CC1 [Example 176, 4-(2-(4,4-difluoropiperidin-1-yl)-5-(trifluoromethyl)nicotinamido)pyridine-2-sulfonic acid] |
| 12 | Cc1nc(N2CCC3(CC2)CC3)c(C(=O)Nc2cc[nH]c(=O)c2)c(C)c1Cl [Example 209, 5-chloro-4,6-dimethyl-N-(2-oxo-1,2-dihydropyridin-4-yl)-2-(6-azaspiro[2.5]octan-6-yl)nicotinamide] |
| 425 | CCS(=O)(=O)c1cc(NC(=O)c2cc(C(F)(F)F)cnc2N2CCCCCC2)ccn1 [Example 198, 2-(azepan-1-yl)-N-(2-ethylsulfonyl-4-pyridyl)-5-(trifluoro-methyl)pyridine-3-carboxamide] |
| 1630 | COc1ccnc(N2CCC(F)(F)CC2)c1C(=O)Nc1ccnc(S(N)(=O)=O)c1 [Example 159, 2-(4,4-difluoropiperidin-1-yl)-4-methoxy-N-(2-sulfamoylpyridin-4-yl)nicotinamide] |

More lines, now with the values behind:

| SMILES | IC50 [nM] |
| --- | --- |
| NS(=O)(=O)c1cc(NC(=O)c2cc(C(F)(F)F)cnc2N2C[C@H]3CC[C@@H](C2)C3(F)F)ccn1 [Example 63, 2-((1R,5S)-8,8-difluoro-3-azabicyclo[3.2.1]octan-3-yl)-N-(2-sulfamoylpyridin-4-yl)-5-(trifluoromethyl)nicotinamide] | 20 |
| NS(=O)(=O)c1cc(NC(=O)c2cc(C(F)(F)F)cnc2N2CCc3cccc(C(F)(F)F)c3C2)ccn1 [Example 89, N-(2-sulfamoyl-4-pyridyl)-5-(trifluoromethyl)-2-[8-(trifluoromethyl)-3,4-dihydro-1H-isoquinolin-2-yl]pyridine-3-carboxamide] | 275 |
| CC1CN(c2ncc(C(F)(F)F)cc2C(=O)Nc2ccnc(C(N)=O)c2)CCC1(F)F (single isomer, unassigned) [Example 158, N-(2-carbamoyl-4-pyridyl)-2-[(3S or 3R)-4,4-difluoro-3-methyl-1-piperidyl]-5-(trifluoromethyl)-pyridine-3-carboxamide] | 41 |
| C[C@H]1CN(c2ncc(C(F)(F)F)cc2C(=O)Nc2ccnc(S(N)(=O)=O)c2)C[C@H](C(F)(F)F)O1 [Example 103, 2-((2S,6R)-2-methyl-6-(trifluoromethyl)morpholino)-N-(2-sulfamoylpyridin-4-yl)-5-(trifluoromethyl)nicotinamide] | 166 |
| NS(=O)(=O)c1cc(NC(=O)c2cc(C(F)(F)F)cnc2N2CCCC(c3cc(F)cc(F)c3)C2)ccn1 (stereo not drawn) [Example 81, 2-[3-(3,5-difluorophenyl)-1-piperidyl]-N-(2-sulfamoyl-4-pyridyl)-5-(trifluoromethyl)pyridine-3-carboxamide] | 39 |
| C[C@@H]1CN(c2ncc(C(F)(F)F)cc2C(=O)Nc2ccnc(S(N)(=O)=O)c2)CCCO1 [Example 111, 2-[(2R)-2-methyl-1,4-oxazepan-4-yl]-N-(2-sulfamoyl-4-pyridyl)-5-(trifluoromethyl)pyridine-3-carboxamide] | 633 |
| CS(=O)(=O)n1ncc(NC(=O)c2cc(C(F)(F)F)cnc2N2CCCC(F)(F)CC2)c1C1CC1 [Example 37, N-[5-cyclopropyl-1-(methylsulfonyl)-1H-pyrazol-4-yl]-2-(4,4-difluoroazepan-1-yl)-5-(trifluoromethyl)pyridin-3-carboxamide] | 1250 |
| NS(=O)(=O)c1cccc(NC(=O)c2cc(C(F)(F)F)cnc2N2CCCCCC2)n1 [Example 141, 2-(azepan-1-yl)-N-(6-sulfamoyl-2-pyridyl)-5-(trifluoromethyl)pyridine-3-carboxamide] | 245 |
| N#CC1CCN(c2ncc(C(F)(F)F)cc2C(=O)Nc2ccnc(S(N)(=O)=O)c2)C1 (single isomer, unassigned) [Example 129, (S or R)-2-(3-cyanopyrrolidin-1-yl)-N-(2-sulfamoylpyridin-4-yl)-5-(trifluoromethyl)nicotinamide] | 753 |
| CS(=O)(=O)c1cc(NC(=O)c2cc(C(F)(F)F)cnc2N2C[C@H]3CC[C@H]3C2)ccn1 [Example 152, 2-[(1R,5S)-3-azabicyclo[3.2.0]heptan-3-yl]-N-(2-methylsulfonyl-4-pyridyl)-5-(trifluoro-methyl)pyridine-3-carboxamide] | 155 |
| CC12CCN(c3ncc(C(F)(F)F)cc3C(=O)Nc3ccnc(S(N)(=O)=O)c3)CC1C2(F)F (single isomer, unassigned) [Example 61, 2-[(1S,6S or 1R,6R)-7,7-difluoro-6-methyl-3-azabicyclo[4.1.0]heptan-3-yl]-N-(2-sulfamoyl-4-pyridyl)-5-(trifluoromethyl)pyridine-3-carboxamide] | 15 |
| NS(=O)(=O)c1cc(NC(=O)c2cc(C(F)(F)F)cnc2N2CCCC(C(F)(F)F)C2)ccn1 (stereo not drawn) [Example 80, N-(2-sulfamoyl-4-pyridyl)-5-(trifluoromethyl)-2-[3-(trifluoromethyl)-1-piperidyl]pyridine-3-carboxamide] | 31 |
| NS(=O)(=O)c1cc(NC(=O)c2cc(C(F)(F)F)cnc2N2CC3CC(F)(F)C3C2)ccn1 (single isomer, unassigned) [Example 64, 2-((1R,2S or 1S,5R)-6,6-difluoro-3-azabicyclo[3.2.0]heptan-3-yl)-N-(2-sulfamoylpyridin-4-yl)-5-(trifluoromethyl)nicotinamide] | 23 |
| C[C@@H]1CN(c2ncc(C(F)(F)F)cc2C(=O)Nc2ccnc(C#N)c2)C[C@H](C)C1(F)F [Example 150, N-(2-cyano-4-pyridyl)-2-[(3S,5R)-4,4-difluoro-3,5-dimethyl-1-piperidyl]-5-(tri-fluoromethyl)pyridine-3-carboxamide] | 77 |
